Results from US20240300924A1, “PYRAZOLE DERIVATIVE COMPOUND, ADHESIVE COMPOSITION COMPRISING SAME, AND ADHESIVE FILM COMPRISING SAME” (LG CHEM, LTD., priority 2021, published 2024).
Entries after “also recorded” stand apart in the source; their conditions may differ.

Tests used:
Format in all cases: physicochemical
[1] = Moisture resistance of adhesive film sample (change in transmittance ΔT); conditions: ΔT of transmittance for light of 390 to 450 nm, 60° C., 90% RH for 500 hours
Description: (§1) Based on 100 parts by weight a solid content except for a solvent in an adhesive composition, 95.4 parts by weight of an adhesive material (AD-701 solid content, LG Chem.), 0.29 part by weight of Compound P1, 0.1 part by weight of an isocyanate-based cross-linking agent (T39M, Soken Chemical & Engineering Co., Ltd.), 0.2 part by weight of a silane-based coupling agent (T-789J, Soken Chemical & Engineering Co., Ltd.), 0.5 part by weight of an antioxidant (Kinox-80, Hannong Chemicals Inc.), 1.5 parts by weight of an antistatic agent (FC-4400, 3M), 2 parts by weight of a hindered amine light stabilizer (Tinuvin 123, BASF SE), and 0.001 part by weight of a catalyst (dibutyltin dilaurate, Sigma-Aldrich) were added to the adhesive composition, the solvent (methyl ethyl ketone, MEK) was added thereto in an amount of 25 parts by weight based on the total parts by weight of the adhesive composition, and a release layer (PET) was coated with the adhesive composition mixed using a mixer (Shaker, SKC 6100, JEIO Tech.) to have a thickness of 22 μm to 23 μm using a knife bar coating apparatus (KP-3000, Kipae E&T Co., Ltd.), thereby preparing an adhesive film. After coating, the release layer was removed, and the adhesive film and a binder resin film (TAC: cellulose triacetate) were sequentially laminated on glass through lamination, thereby producing a sample.
(§2) The maximum absorption wavelength λmax (nm) of each of the adhesive composition and the adhesive film was measured using a UV-vis apparatus (Shimazu UV-3600). In addition, the transmittance of the sample for light with a wavelength of 390 to 450 nm was measured by the UV-vis apparatus (Shimazu UV-3600). Under conditions of light fastness 55,600 lx*48 hours; under conditions of heat resistance 80° C. and for 500 hours; or under conditions of moisture resistance 60° C., 90% RH and for 500 hours, the sample was each exposed, and then the transmittance for light with a wavelength of 390 to 450 nm was re-measured. ΔT was calculated by dividing the value obtained by […] by the transmittance value immediately after the sample was produced, and the results under the evaluation conditions are shown in Table 1. Furthermore, the transmittance of the sample for light in a region with a wavelength of 450 nm or more was measured by the UV-vis apparatus (Shimazu UV-3600). Further, the solubility of Compound p1 to methyl ethyl ketone (MEK) was measured under conditions of 1 atm and room temperature.
(§3) ΔT (%)={(transmittance measured immediately after the optical film was prepared−transmittance re-measured after the optical film is exposed to each condition of light fastness, heat resistance, and moisture resistance)/transmittance measured immediately after the optical film is prepared}×100
(§4) • ◯: ΔT 1.5% or less • Δ: ΔT more than 1.5% and 3% or less • X: ΔT more than 3%
(§5) The light fastness, heat resistance and moisture resistance were evaluated as ◯, Δ, and X based on whether the ΔT was 1.5% or less, more than 1.5% and 3% or less, or more than 3%, respectively.

[2] = Maximum absorption wavelength of the adhesive film (thin film), UV-vis; conditions: adhesive film 22 μm to 23 μm; UV-vis apparatus (Shimazu UV-3600)
Description: as §1, §2
(§6) Experiments were performed under the same conditions as in Example 1, except that Compounds P3 to P10, Compound P15 and Comparative Compounds Z1 and Z2 were used instead of Compound P1, respectively, in Example 1, and the experimental results are shown in the following Table 1.

[3] = Solubility of compound in methyl ethyl ketone (MEK); conditions: solubility to 10 g of methyl ethyl ketone; 1 atm and room temperature
Experimental: as §2
• ◯: 0.3 wt. % or more • Δ: more than 0.1 wt. % and less than 0.3 wt. % • X: 0.1 wt. % or less

[4] = Light fastness of adhesive film sample (change in transmittance ΔT); conditions: ΔT of transmittance for light of 390 to 450 nm; adhesive film sample with 0.29 part by weight compound; 55,600 lx*48 hours
Description: as §1, §2, §3, §4, §5

[5] = Maximum absorption wavelength of the adhesive composition (solution), UV-vis; conditions: adhesive composition in MEK; UV-vis apparatus (Shimazu UV-3600)
Description: as §1, §2, §6

[6] = Heat resistance of adhesive film sample (change in transmittance ΔT); conditions: ΔT of transmittance for light of 390 to 450 nm, 80° C. for 500 hours
Description: as §1, §2, §3, §4, §5

[7] = Wavelength compatibility (transmittance of sample in region with 450 nm or more); conditions: for Wavelength compatibility: transmittance of adhesive film sample in region with wavelength of 450 nm or more; for wavelength compatibility (in words): verbal assessment
Experimental: as §2
• ◯: transmittance of 90% or more in region with 450 nm or more • Δ: transmittance of 80% or more in region with 450 nm or more • X: transmittance of 80% or less in region with 450 nm or more
The wavelength compatibility was evaluated as ◯, Δ, and X based on whether the transmittance in a region with 450 nm or more was 90% or more, 80% or more, or 80% or less, respectively.

[8] = Solution-phase UV-Vis spectrum (FIG. 2), wavelength distribution; conditions: P3 compared with Comparative Compound Z2
Description: FIG. 2 illustrates the solution-phase UV-Vis spectra of Compound P3 according to an exemplary embodiment of the present disclosure and Comparative Compound Z2 used in Comparative Example 2.
Since the compound according to an exemplary embodiment of the present disclosure may improve the light blocking efficiency or reduce the reflectance to external light by strongly absorbing light, the compound is excellent in wavelength compatibility in being included in an optical film. The wavelength compatibility can be confirmed by the wavelength distribution and the optimization appearing in the UV-Vis spectrum. For example, FIG. 2 illustrates the solution-phase UV-Vis spectra of Compound P3 according to an exemplary embodiment of the present disclosure and Comparative Compound Z2 used in Comparative Example 2. In FIG. 2, the dotted line is the solution-phase UV-Vis spectrum for Comparative Compound Z2, and the solid line is the solution-phase UV-Vis spectrum for Compound P3 according to an exemplary embodiment of the present disclosure.

## Cc1ccc(-n2nc(C(C)C)c(C=C3C(=O)N(C4CCCCC4)C(=O)N(C4CCCCC4)C3=O)c2O)c(C)c1 [Compound P10]
[1]
  Moisture resistance: ∘
[2]
  λmax (nm) (Thin film): 398 nm
[3]
  MEK solubility: ∘
[4]
  Light fastness: ∘
[5]
  λmax (nm) (Solution): 403 nm
[6]
  Heat resistance: ∘
[7]
  Wavelength compatibility: ∘

## Cc1ccc(-n2nc(-c3ccccc3)c(C=C3C(=O)N(C4CCCCC4)C(=O)N(C4CCCCC4)C3=O)c2O)c(C)c1 [Compound P7]
[1]
  Moisture resistance: ∘
[2]
  λmax (nm) (Thin film): 399 nm
[3]
  MEK solubility: ∘
[4]
  Light fastness: ∘
[5]
  λmax (nm) (Solution): 399 nm
[6]
  Heat resistance: ∘
[7]
  Wavelength compatibility: ∘

## Cc1ccccc1-n1nc(-c2ccccc2)c(C=C2C(=O)N(C3CCCCC3)C(=O)N(C3CCCCC3)C2=O)c1O [Compound P6]
[1]
  Moisture resistance: ∘
[2]
  λmax (nm) (Thin film): 400 nm
[3]
  MEK solubility: Δ (more than 0.1 wt. % and less than 0.3 wt. %)
[4]
  Light fastness: ∘
[5]
  λmax (nm) (Solution): 400 nm
[6]
  Heat resistance: Δ (ΔT more than 1.5% and 3% or less)
[7]
  Wavelength compatibility: ∘

## O=C1C(=Cc2c(-c3ccccc3)nn(-c3ccccc3)c2O)C(=O)N(C2CCCCC2)C(=O)N1C1CCCCC1 [Compound P5]
[1]
  Moisture resistance: ∘
[2]
  λmax (nm) (Thin film): 406 nm
[3]
  MEK solubility: Δ (more than 0.1 wt. % and less than 0.3 wt. %)
[4]
  Light fastness: Δ (ΔT more than 1.5% and 3% or less)
[5]
  λmax (nm) (Solution): 407 nm
[6]
  Heat resistance: ∘
[7]
  Wavelength compatibility: ∘

## Cc1ccccc1-n1nc(C)c(C=C2C(=O)N(C3CCCCC3)C(=O)N(C3CCCCC3)C2=O)c1O [Compound P3]
[8]
  wavelength distribution in solution-phase UV-Vis spectrum: narrower wavelength distribution than Comparative Compound Z2; also recorded: wavelength distribution narrower and more optimized than Comparative Compound Z2
[1]
  Moisture resistance: ∘
[2]
  λmax (nm) (Thin film): 400 nm
[3]
  MEK solubility: ∘
[4]
  Light fastness: ∘
[5]
  λmax (nm) (Solution): 404 nm
[6]
  Heat resistance: ∘
[7]
  Wavelength compatibility: ∘
  wavelength compatibility (in words): excellent wavelength compatibility

## CC(C)c1nn(-c2ccccc2)c(O)c1C=C1C(=O)N(C2CCCCC2)C(=O)N(C2CCCCC2)C1=O [Compound P8]
[1]
  Moisture resistance: ∘
[2]
  λmax (nm) (Thin film): 408 nm
[3]
  MEK solubility: Δ (more than 0.1 wt. % and less than 0.3 wt. %)
[4]
  Light fastness: ∘
[5]
  λmax (nm) (Solution): 406 nm
[6]
  Heat resistance: Δ (ΔT more than 1.5% and 3% or less)
[7]
  Wavelength compatibility: ∘

## CC1=NN(c2ccccc2)C(=O)/C1=C\c1c(C)nn(-c2ccccc2)c1O [Comparative Compound Z2, reference compound]
[1]
  Moisture resistance: ∘
[2]
  λmax (nm) (Thin film): 403 nm
[3]
  MEK solubility: ∘
[4]
  Light fastness: ∘
[5]
  λmax (nm) (Solution): 405 nm
[6]
  Heat resistance: ∘
[7]
  wavelength compatibility (in words): remarkably deteriorates compared to Examples 1 to 10

## Cc1ccccc1-n1nc(C(C)C)c(C=C2C(=O)N(C3CCCCC3)C(=O)N(C3CCCCC3)C2=O)c1O [Compound P9]
[1]
  Moisture resistance: ∘
[2]
  λmax (nm) (Thin film): 399 nm
[3]
  MEK solubility: ∘
[4]
  Light fastness: ∘
[5]
  λmax (nm) (Solution): 403 nm
[6]
  Heat resistance: ∘
[7]
  Wavelength compatibility: ∘

## Cc1nn(-c2ccccc2)c(O)c1C=C1C(=O)NC(=O)NC1=O [Comparative Compound Z1, reference compound]
[1]
  Moisture resistance: Δ (ΔT more than 1.5% and 3% or less)
[2]
  λmax (nm) (Thin film): 425 nm
[5]
  λmax (nm) (Solution): 412 nm
[7]
  Wavelength compatibility: Δ (transmittance of 80% or more in region with 450 nm or more)

## Cc1ccc(-n2nc(C)c(C=C3C(=O)N(C4CCCCC4)C(=O)N(C4CCCCC4)C3=O)c2O)c(C)c1 [Compound P4]
[1]
  Moisture resistance: ∘
[2]
  λmax (nm) (Thin film): 399 nm
[3]
  MEK solubility: ∘
[4]
  Light fastness: ∘
[5]
  λmax (nm) (Solution): 403 nm
[6]
  Heat resistance: ∘
[7]
  Wavelength compatibility: ∘

## Cc1ccccc1-n1nc(C(C)C)c(C=C2C(=O)N(c3ccccc3)C(=O)N(c3ccccc3)C2=O)c1O [Compound P15]
[1]
  Moisture resistance: ∘
[2]
  λmax (nm) (Thin film): 398 nm
[3]
  MEK solubility: Δ (more than 0.1 wt. % and less than 0.3 wt. %)
[4]
  Light fastness: ∘
[5]
  λmax (nm) (Solution): 402 nm
[6]
  Heat resistance: ∘
[7]
  Wavelength compatibility: ∘

## Cc1nn(-c2ccccc2)c(O)c1C=C1C(=O)N(C2CCCCC2)C(=O)N(C2CCCCC2)C1=O [Compound P1]
[1]
  Moisture resistance: ∘
[2]
  λmax (nm) (Thin film): 407 nm
[3]
  MEK solubility: Δ (more than 0.1 wt. % and less than 0.3 wt. %)
[4]
  Light fastness: Δ (ΔT more than 1.5% and 3% or less)
[5]
  λmax (nm) (Solution): 411 nm
[6]
  Heat resistance: Δ (ΔT more than 1.5% and 3% or less)
[7]
  Wavelength compatibility: ∘
